From patent US11905278B1, “6-(6-bromo-2-oxo-2H-chromen-3-yl)-4-(2-chlorophenyl)-2-alkoxynicotinonitrile as an antimicrobial compound” (KING FAISAL UNIVERSITY, priority 2023, dated 2024) come the findings set out here.

Common to all, as to type: cell-based
One assay deals with Bacillus cereus. Description: Agar plate disc-diffusion, antibacterial activity by inhibition zone. The protocol:
(§1) The agar plate disc-diffusion method was applied. Sterilized filter papers (6 mm in diameter) were wetted with 10 μL of a solution of compounds 6-(6-bromo-2-oxo-2H-chromen-3-yl)-4-(2-chlorophenyl)-2-ethoxynicotinonitrile 1 or 6-(6-bromo-2-oxo-2H-chromen-3-yl)-4-(2-chlorophenyl)-2-methoxynicotinonitrile 2 to be tested, containing […], and the discs were allowed to air dry. The discs were then placed onto the surface of agar plates (nutrient agar for bacteria and Sabouraud's dextrose agar for fungi) seeded with the test organism. Each plate contained 15 mL of the agar medium, previously seeded with 0.2 mL of the broth culture of each organism pregrown for 18 hours. The plates were incubated at 37° C. for 48 hours, and 72 hours for fungi. The inhibition zones were measured in mm. Discs impregnated with DMSO were used as a control, and its inhibition zone was subtracted from the tested compound actual inhibition zone.
(§2) The results of the antimicrobial testing can be observed in Tables 1 and 2, below, using ciprofloxacin as a reference.

A further assay has as its system Escherichia coli. The assay is described as above. The protocol:
as §1, §2

For another assay, the system named is Pseudomonas aeruginosa. The description is as above. As to the method:
as §1, §2

In a further assay the test system is Staphylococcus aureus. The description is as above. The protocol:
as §1, §2

The subject of the next assay is Aspergillus flavus. Briefly: Agar plate disc-diffusion, antifungal activity by inhibition zone. The protocol: as §1, §2
Background: A growth-free zone around the sample is the usual read-out of agar diffusion tests.

For assay [1], the system named is Chrysosporium keratinophilum. The description is as above. The protocol: as §1, §2
A further assay relates to different microbes. Description: Antimicrobial testing, overall conclusion. To be noted: summary of Tables 1 and 2. The protocol: as §1
Their antibacterial activity was screened against gram positive bacteria namely Bacillus cereus and Staphylococcus aureus and gram-negative bacterial strains namely Pseudomonas aeruginosa and Escherichia coli, while their antifungal activity was screened against Aspergillus flavus and Chrysosporium keratinophilum.

Setting [2] is: A = concentration of comp. = 10,000 μL.
Setting [3] is: B = concentration of comp. = 30,000 μL.
[4] abbreviates: C = concentration of comp. = 50,000 μL.

Turning to `O=C(O)c1cn(C2CC2)c2cc(N3CCNCC3)c(F)cc2c1=O` [Cip., ciprofloxacin, reference compound], the inhibition zone in the assay with Bacillus cereus (setting [2]) amounted to 29 mm; in the assay with Bacillus cereus (setting [3]), 30 mm; with Bacillus cereus (setting [4]), 42 mm; with Escherichia coli (setting [2]), 30 mm; with Escherichia coli (setting [3]), 39 mm; in the assay on Escherichia coli (setting [4]), 60 mm. Moreover, the inhibition zone with Pseudomonas aeruginosa (setting [2]) is 29 mm; in the assay with Pseudomonas aeruginosa (setting [3]), 30 mm; with Pseudomonas aeruginosa (setting [4]), 53 mm; in the assay with Staphylococcus aureus (setting [2]), 43 mm; with Staphylococcus aureus (setting [3]), 44 mm; with Staphylococcus aureus (setting [4]) it was 53 mm. The inhibition zone was determined as 29 mm in the assay on Aspergillus flavus (setting [2]); 30 mm in the assay with Aspergillus flavus (setting [3]); 42 mm with Aspergillus flavus (setting [4]); 29 mm in assay [1] (setting [2]); 30 mm in assay [1] (setting [3]); 53 mm in assay [1] (setting [4]).
On to `CCOc1nc(-c2cc3cc(Br)ccc3oc2=O)cc(-c2ccccc2Cl)c1C#N` [Compound 1, 6-(6-bromo-2-oxo-2H-chromen-3-yl)-4-(2-chlorophenyl)-2-ethoxynicotinonitrile], for which the inhibition zone with Bacillus cereus (setting [2]) was determined as 26 mm; in the assay with Bacillus cereus (setting [3]) it was 29 mm; with Bacillus cereus (setting [4]) it was 39 mm; in the assay on Escherichia coli (setting [2]) it was 27 mm; with Escherichia coli (setting [3]), 38 mm; in the assay with Escherichia coli (setting [4]), 49 mm. Also, the inhibition zone came out at 26 mm with Pseudomonas aeruginosa (setting [2]); 30 mm in the assay with Pseudomonas aeruginosa (setting [3]); 40 mm with Pseudomonas aeruginosa (setting [4]); 17 mm in the assay on Staphylococcus aureus (setting [2]); 20 mm with Staphylococcus aureus (setting [3]); 36 mm with Staphylococcus aureus (setting [4]). For the same compound, the inhibition zone was determined as 19 mm with Aspergillus flavus (setting [2]); 21 mm in the assay on Aspergillus flavus (setting [3]); 29 mm in the assay with Aspergillus flavus (setting [4]); 26 mm in assay [1] (setting [2]); 27 mm in assay [1] (setting [3]); 38 mm in assay [1] (setting [4]). The antimicrobial activities entry in the assay with different microbes is on record as “high antimicrobial activities”.
In the case of `COc1nc(-c2cc3cc(Br)ccc3oc2=O)cc(-c2ccccc2Cl)c1C#N` [Compound 2, 6-(6-bromo-2-oxo-2H-chromen-3-yl)-4-(2-chlorophenyl)-2-methoxynicotinonitrile], the inhibition zone in the assay with Bacillus cereus (setting [2]) was found to be 25 mm; in the assay with Bacillus cereus (setting [3]), 30 mm; in the assay on Bacillus cereus (setting [4]) it was 39 mm; in the assay on Escherichia coli (setting [2]), 27 mm; in the assay with Escherichia coli (setting [3]), 35 mm; in the assay with Escherichia coli (setting [4]), 46 mm. Further, the inhibition zone with Pseudomonas aeruginosa (setting [2]) is 26 mm; in the assay with Pseudomonas aeruginosa (setting [3]), 33 mm; in the assay on Pseudomonas aeruginosa (setting [4]) it was 39 mm; with Staphylococcus aureus (setting [2]), 16 mm; in the assay on Staphylococcus aureus (setting [3]) it was 24 mm; in the assay on Staphylococcus aureus (setting [4]), 32 mm. Moreover, the inhibition zone with Aspergillus flavus (setting [2]) is 25 mm; in the assay with Aspergillus flavus (setting [3]), 28 mm; in the assay with Aspergillus flavus (setting [4]), 39 mm; in assay [1] (setting [2]), 22 mm; in assay [1] (setting [3]), 28 mm; in assay [1] (setting [4]), 41 mm. In the assay on different microbes, the antimicrobial activities result is given as “high antimicrobial activities”.
